# Results from ChEMBL document CHEMBL3397033, “Bioactive benzofuran derivatives: moracins A-Z in medicinal chemistry” (Eur J Med Chem, 2015).
# Assays:
# Escherichia coli [1] = assay: Antimicrobial activity against Escherichia coli; format: functional
# A2780 = assay: Cytotoxicity against human A2780 cells after 96 hrs by MTT assay; format: functional, cell-based; conditions: A2780, 96 h
# A549 = assay: Cytotoxicity against human A549 cells after 96 hrs by MTT assay; format: functional, cell-based; conditions: A549, 96 h
# Pseudomonas aeruginosa [2] = assay: Antimicrobial activity against Pseudomonas aeruginosa; format: functional
# Klebsiella pneumoniae [3] = assay: Antimicrobial activity against Klebsiella pneumoniae; format: functional
# [4] = Cytotoxicity against human BGC823 cells after 96 hrs by MTT assay; format: functional, cell-based; conditions: BGC-823, 96 h
# [5] = Cytotoxicity against human Bel7402 cells after 96 hrs by MTT assay; format: functional, cell-based; conditions: Bel-7402, 96 h
# [6] = Cytotoxicity against human HCT8 cells after 96 hrs by MTT assay; format: functional, cell-based; conditions: HCT-8, 96 h
# Escherichia coli [7] = assay: Microbicidal activity against Escherichia coli by liquid microdilution assay; format: functional
# Enterococcus faecalis [8] = assay: Microbicidal activity against Streptococcus faecalis by liquid microdilution assay; format: functional
# Citrobacter freundii [9] = assay: Microbicidal activity against Citrobacter freundii by liquid microdilution assay; format: functional
# [10] = Antioxidant activity assessed as DPPH radical scavenging activity measured as discoloration at 25 ug/ml; format: physicochemical
# [11] = Antioxidant activity assessed as DPPH radical scavenging activity; format: physicochemical
# Candida albicans [12] = assay: Microbicidal activity against Candida albicans by liquid microdilution assay; format: functional
# Staphylococcus aureus [13] = assay: Antimicrobial activity against Staphylococcus aureus by liquid microdilution assay; format: functional
# Citrobacter freundii [14] = assay: Antimicrobial activity against Citrobacter freundii by liquid microdilution assay; format: functional
# Shigella dysenteriae [15] = assay: Microbicidal activity against Shigella dysenteriae by liquid microdilution assay; format: functional
# Salmonella typhi [16] = assay: Antimicrobial activity against Salmonella typhi by liquid microdilution assay; format: functional, Salmonella enterica subsp. enterica serovar Typhi; conditions: Salmonella enterica
# Shigella dysenteriae [17] = assay: Antimicrobial activity against Shigella dysenteriae by liquid microdilution assay; format: functional
# [18] = Antioxidant activity assessed as DPPH radical scavenging activity measured as discoloration at 50 ug/ml; format: physicochemical
# Candida albicans [19] = assay: Antimicrobial activity against Candida albicans by liquid microdilution assay; format: functional
# Bacillus cereus [20] = assay: Microbicidal activity against Bacillus cereus by liquid microdilution assay; format: functional
# [21] = Antioxidant activity assessed as DPPH radical scavenging activity measured as discoloration at 12.5 ug/ml; format: physicochemical
# Pseudomonas aeruginosa [22] = assay: Antimicrobial activity against Pseudomonas aeruginosa by liquid microdilution assay; format: functional
# Microsporum audouinii [23] = assay: Antimicrobial activity against Microsporum audouinii by liquid microdilution assay; format: functional
# [24] = Antioxidant activity assessed as DPPH radical scavenging activity measured as discoloration at 100 ug/ml; format: physicochemical
# Bacillus cereus [25] = assay: Antimicrobial activity against Bacillus cereus by liquid microdilution assay; format: functional
# Pseudomonas aeruginosa [26] = assay: Microbicidal activity against Pseudomonas aeruginosa by liquid microdilution assay; format: functional
# Klebsiella pneumoniae [27] = assay: Microbicidal activity against Klebsiella pneumoniae by liquid microdilution assay; format: functional
# Salmonella typhi [28] = assay: Microbicidal activity against Salmonella typhi by liquid microdilution assay; format: functional, Salmonella enterica subsp. enterica serovar Typhi; conditions: Salmonella enterica
# Staphylococcus aureus [29] = assay: Microbicidal activity against Staphylococcus aureus by liquid microdilution assay; format: functional
# Klebsiella pneumoniae [30] = assay: Antimicrobial activity against Klebsiella pneumoniae by liquid microdilution assay; format: functional
# Enterococcus faecalis [31] = assay: Antimicrobial activity against Streptococcus faecalis by liquid microdilution assay; format: functional
# Escherichia coli [32] = assay: Antimicrobial activity against Escherichia coli by liquid microdilution assay; format: functional
# Microsporum audouinii [33] = assay: Microbicidal activity against Microsporum audouinii by liquid microdilution assay; format: functional
# Morus alba = assay: Antioxidant activity in mulberry leaves assessed as UV-stress-induced free radical scavenging activity measured as inhibition of blue formazan at 100 uM; format: functional
# [34] = Inhibition of alpha-glucosidase (unknown origin); parameters: species or system Homo sapiens
# Tyrosinase = Tyrosinase (Agaricus bisporus, UniProt O42713); assay: Inhibition of mushroom tyrosinase
# [35] = Antifungal activity against Fusarium solani f. sp. mori; format: functional
# [36] = Antifungal activity against Stigmina mori; format: functional
# [37] = Antifungal activity against Diaporthe nomurai; format: functional
# [38] = Antifungal activity against Fusarium lateritium f. sp. mori; format: functional
# [39] = Antifungal activity against Fusarium roseum; format: functional
# [40] = Antifungal activity against Cochliobolus miyabeanus; format: functional; conditions: Bipolaris oryzae
# Rosellinia necatrix = assay: Antifungal activity against Rosellinia necatrix; format: functional
# RAW264.7 [41] = assay: Antiinflammatory activity against mouse RAW264.7 cells assessed as reduction of IFNgamma-induced NO production; format: functional, cell-based
# RAW264.7 [42] = assay: Antiinflammatory activity against mouse RAW264.7 cells assessed as reduction of LPS-induced NO production; format: functional, cell-based
# Tyrosinase, sequence (O42713 whole entry): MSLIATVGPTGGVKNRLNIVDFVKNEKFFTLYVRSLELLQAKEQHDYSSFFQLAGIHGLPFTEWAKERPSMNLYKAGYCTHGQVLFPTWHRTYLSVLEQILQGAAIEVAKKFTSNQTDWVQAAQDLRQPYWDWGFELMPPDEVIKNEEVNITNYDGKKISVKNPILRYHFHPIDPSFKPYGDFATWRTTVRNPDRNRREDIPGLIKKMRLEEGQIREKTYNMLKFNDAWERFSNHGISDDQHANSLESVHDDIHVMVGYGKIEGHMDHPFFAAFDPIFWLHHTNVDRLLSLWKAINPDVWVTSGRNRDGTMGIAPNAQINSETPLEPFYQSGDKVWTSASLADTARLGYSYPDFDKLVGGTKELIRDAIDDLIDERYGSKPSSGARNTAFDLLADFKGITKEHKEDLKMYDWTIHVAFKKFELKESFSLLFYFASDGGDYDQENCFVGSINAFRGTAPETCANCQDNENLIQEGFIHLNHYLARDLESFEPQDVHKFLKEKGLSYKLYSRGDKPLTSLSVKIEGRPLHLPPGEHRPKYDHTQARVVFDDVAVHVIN
smiles,measurement,setting,value
C/C(=C/Cc1c(O)c2c(c3cc(-c4cc(O)cc(O)c4)oc13)C=CC(C)(C)O2)CCCC(C)(C)O,MIC,Escherichia coli [1],> 100 µg/mL
same,IC50,A2780,> 10 µg/mL
same,IC50,A549,> 10 µg/mL
same,MIC,Pseudomonas aeruginosa [2],> 100 µg/mL
same,MIC,Klebsiella pneumoniae [3],> 100 µg/mL
same,IC50,[4],8.3 µg/mL
same,IC50,[5],> 10 µg/mL
same,IC50,[6],9.2 µg/mL
COc1c(O)cc2oc(-c3cc(O)cc(O)c3)cc2c1CC=C(C)C,MBC,Escherichia coli [7],10 µg/mL
same,MBC,Enterococcus faecalis [8],39 µg/mL
same,MBC,Citrobacter freundii [9],312 µg/mL
same,Activity,[10],65.63%
same,EC50,[11],4.12 µg/mL
same,MIC,Escherichia coli [1],> 100 µg/mL
same,MFC,Candida albicans [12],20 µg/mL
same,MIC,Staphylococcus aureus [13],10 µg/mL
same,MIC,Citrobacter freundii [14],156 µg/mL
same,MBC,Shigella dysenteriae [15],10 µg/mL
same,MIC,Salmonella typhi [16],5 µg/mL
same,MIC,Shigella dysenteriae [17],5 µg/mL
same,Activity,[18],71.72%
same,MIC,Candida albicans [19],10 µg/mL
same,MBC,Bacillus cereus [20],39 µg/mL
same,Activity,[21],61.58%
same,MIC,Pseudomonas aeruginosa [22],5 µg/mL
same,MIC,Pseudomonas aeruginosa [2],> 100 µg/mL
same,MIC,Klebsiella pneumoniae [3],> 100 µg/mL
same,MIC,Microsporum audouinii [23],39 µg/mL
same,Activity,[24],83.04%
same,MIC,Bacillus cereus [25],5 µg/mL
same,MBC,Pseudomonas aeruginosa [26],20 µg/mL
same,MBC,Klebsiella pneumoniae [27],78 µg/mL
same,MBC,Salmonella typhi [28],20 µg/mL
same,MBC,Staphylococcus aureus [29],39 µg/mL
same,MIC,Klebsiella pneumoniae [30],39 µg/mL
same,MIC,Enterococcus faecalis [31],10 µg/mL
same,MIC,Escherichia coli [32],5 µg/mL
same,MFC,Microsporum audouinii [33],78 µg/mL
CC(C)=CCc1cc2cc(-c3cc(O)cc(O)c3)oc2cc1O [MORACIN N],inhibition,Morus alba,76%
same,IC50,[34],2.76 µM
same,MIC,Escherichia coli [1],> 100 µg/mL
same,IC50,Tyrosinase,0.924 µM
same,IC50,A2780,> 10 µg/mL
same,IC50,A549,> 10 µg/mL
same,MIC,Pseudomonas aeruginosa [2],> 100 µg/mL
same,MIC,Klebsiella pneumoniae [3],> 100 µg/mL
same,IC50,[4],> 10 µg/mL
same,IC50,[5],> 10 µg/mL
same,IC50,[6],> 10 µg/mL
COc1cc2cc(-c3cc(O)cc(O)c3)oc2cc1OC,MIC,[35],1000 µg/mL
same,MIC,Escherichia coli [1],> 100 µg/mL
same,MIC,[36],50 µg/mL
same,MIC,[37],1000 µg/mL
same,MIC,Pseudomonas aeruginosa [2],> 100 µg/mL
same,MIC,[38],200 µg/mL
same,MIC,Klebsiella pneumoniae [3],> 100 µg/mL
same,MIC,[39],50 µg/mL
same,MIC,[40],100 µg/mL
same,MIC,Rosellinia necatrix,50 µg/mL
CC(C)=CCc1c(O)ccc2cc(-c3cc(O)cc(O)c3)oc12,Activity,[10],62.25%
same,EC50,[11],5.06 µg/mL
same,MIC,Escherichia coli [1],> 100 µg/mL
same,Activity,[18],67.87%
same,Activity,[21],55%
same,MIC,Pseudomonas aeruginosa [2],> 100 µg/mL
same,MIC,Klebsiella pneumoniae [3],> 100 µg/mL
same,Activity,[24],69.72%
COc1cc(OC)c2cc(-c3cc(O)cc(O)c3)oc2c1,MIC,Escherichia coli [1],> 100 µg/mL
same,MIC,Pseudomonas aeruginosa [2],> 100 µg/mL
same,MIC,Klebsiella pneumoniae [3],> 100 µg/mL
COc1cc(O)cc(-c2cc3cc(O)c(OC)cc3o2)c1,MIC,Escherichia coli [1],> 100 µg/mL
same,MIC,Pseudomonas aeruginosa [2],> 100 µg/mL
same,MIC,Klebsiella pneumoniae [3],> 100 µg/mL
COc1cc2c(c3oc(-c4cc(O)cc(O)c4)cc13)CC=C(C)CO2,MIC,[35],1000 µg/mL
same,MIC,Escherichia coli [1],> 100 µg/mL
same,MIC,[36],50 µg/mL
same,MIC,[37],50 µg/mL
same,MIC,Pseudomonas aeruginosa [2],> 100 µg/mL
same,MIC,[38],100 µg/mL
same,MIC,Klebsiella pneumoniae [3],> 100 µg/mL
same,MIC,[39],15 µg/mL
same,MIC,[40],50 µg/mL
same,MIC,Rosellinia necatrix,15 µg/mL
COc1cc2oc(-c3cc(O)cc(O)c3)cc2cc1O,MIC,Escherichia coli [1],> 100 µg/mL
same,MIC,Pseudomonas aeruginosa [2],> 100 µg/mL
same,MIC,Klebsiella pneumoniae [3],> 100 µg/mL
COc1cc(O)cc(-c2cc3ccc(O)cc3o2)c1CC=C(C)C [MORACIN I],MIC,Escherichia coli [1],> 100 µg/mL
same,MIC,Pseudomonas aeruginosa [2],> 100 µg/mL
same,MIC,Klebsiella pneumoniae [3],> 100 µg/mL
CC(C)(O)C(O)Cc1cc2cc(-c3cc(O)cc(O)c3)oc2cc1O (configuration not stated),MBC,Escherichia coli [7],625 µg/mL
same,MBC,Enterococcus faecalis [8],312 µg/mL
same,Activity,[10],38.2%
same,EC50,[11],7.17 µg/mL
same,IC50,RAW264.7 [41],14.3 µM
same,MIC,Escherichia coli [1],> 100 µg/mL
same,MIC,Staphylococcus aureus [13],312 µg/mL
same,MBC,Shigella dysenteriae [15],312 µg/mL
same,MIC,Salmonella typhi [16],156 µg/mL
same,MIC,Shigella dysenteriae [17],78 µg/mL
same,Activity,[18],48%
same,MBC,Bacillus cereus [20],625 µg/mL
same,Activity,[21],34.6%
same,IC50,RAW264.7 [42],14.3 µM
same,MIC,Pseudomonas aeruginosa [22],10 µg/mL
same,MIC,Pseudomonas aeruginosa [2],> 100 µg/mL
same,MIC,Klebsiella pneumoniae [3],> 100 µg/mL
same,MIC,Microsporum audouinii [23],312 µg/mL
same,Activity,[24],50%
same,MIC,Bacillus cereus [25],156 µg/mL
same,MBC,Pseudomonas aeruginosa [26],39 µg/mL
same,MBC,Klebsiella pneumoniae [27],625 µg/mL
same,MBC,Salmonella typhi [28],312 µg/mL
same,MBC,Staphylococcus aureus [29],625 µg/mL
same,MIC,Klebsiella pneumoniae [30],312 µg/mL
same,MIC,Enterococcus faecalis [31],156 µg/mL
same,MIC,Escherichia coli [32],78 µg/mL
same,MFC,Microsporum audouinii [33],625 µg/mL
